Patent EP4534610A1, “FLUOROPHORE COMPOUNDS AND PRODUCTION THEREOF” (Université Fribourg, priority 2023, dated 2025)
“And” between values parts separate entries of the source, which are not always exact repeats. Equal values may be shown once.

Legend:
[1] = Photoluminescence emission spectra in different solvents; format: physicochemical
Protocol: The photo-physical properties of these dye molecules with stilbene-like motifs were investigated in different solvents in order to determine their maximum absorption and emission wavelengths (Figures 6A to 6C). The compounds were dissolved in Acetonitrile (CH3CN), chloroform (CHCl3), c-hexane (c-HEX), dichloromethane (DCM), dimethylformamide (DMF), methanol (MeOH), tetrahydrofuran (THF), and toluene (Tol).
The highest emission intensity was detected when THF and c-Hex were used as solvents, with lesser intensity recorded for DMF and Tol. PyPe emits light in the blue range, with emission peaks between 380nm and 550nm. Absolute intensities of up to 3.5 x 10^6 were recorded for PyPe in c-Hex.
The photoluminescence spectra of PyPeBr upon excitation at 440nm when dissolved in CH3CN, CHCl3, DCM, DMF, MeOH, or Tol, and upon excitation at 370 nm when dissolved in c-Hex or THF is shown in Figure 4B. PyPeBr has a relatively broad emission spectrum, which depends on the solvent used. The emission spectrum of PyPeBr can be as broad to cover most of the visible range. This broad emission range offers the possibility to select a desired wavelength for imaging by applying appropriate filters.
PyPh emits light in the blue range, ranging from 400nm to 500nm. […] The loss in stability is due to the self-photobleaching reactions, which are induced by irradiation.
(§1) ^1H-NMR was recorded on 400 MHz (Brucker DRX 400) and ^13C-NMR spectra were recorded on Bruker 100 MHz spectrometer at room temperature with d6-DMSO as a solvent and tetramethylsilane (TMS) as the internal standard. Mass spectra were performed on the Bruker-ION Trap Ms. Fluorescence spectra were measured on an Edinburgh Instruments FS5 Spectrofluorometer. Absorption spectra were determined on a Perkin Elmer UV/VIS Lambda 2 (190-1100 nm) spectrophotometer. IR spectra were recorded on a Perking Elmer FT-IR spectrometer Frontier 4000-400 cm^-1. Single crystal structures were obtained from a STOE-IPDS II (Single crystal diffractometer λ-Mo), solved and refined using SHELXT software package.

[2] = Optical properties in different solvents: emission and absorption maxima, lifetime, quantum yield; format: physicochemical; details: for Lifetime, τavr.: multiexponential lifetime represented with τavr.; for Φf: quantum yield determined using integrating sphere
Protocol: as §1

[3] = Photostability: UV-visible spectra of 5µM solutions after continuous irradiation with 400 nm light (Xenon-arc lamp, 300 Watt); format: physicochemical; details: for stability of the absorbance under irradiation: up to 24h
Protocol: To examine the stability of the absorbance of PyPeBr and PyPe, 5µM solution (2.5 mL) of the respective compounds were prepared using different solvents. The compounds were then irradiated with 400nm using a Xenon-arc lamp at 300 Watt (25 nm FWHM). Following predefined irradiation periods, indicated in Figures 6A to 6H, UV-visible spectra were collected to monitor the stability of PyPeBr and PyPe in different solvents.

HEK/OVA-B16 cells = assay: Staining and fluorescence imaging of living cells; format: cell-based; details: for staining pattern in cells: HEK/OVA-B16 cells; for uptake by living cells: dyes applied for up to 1 hour at 10µM; for fluorescence emission spectrum in situ, peak: excited at 405 nm
[4] = tested on: melanoma OVA-B16 cells line; assay: MTT cytotoxicity assay; format: cell-based
Protocol: To this end, cytotoxicity tests using the MTT assay, a standard colorimetric assay for assessing cell metabolic activity known to the person skilled in the art, on melanoma OVA-B16 cells line were performed. […] Cell growth of OVA-16 cells was unaffected after 1h and 24h of exposure of PyPeBr at this concentration.

[5] = Light-induced E/Z isomerisation and photostationary state (X-ray of Zn complex, NMR, UV-Vis); format: physicochemical; details: similar irradiation conditions, NMR and UV-visible experiments
Excerpt: Evidence of the efficient photostationary state of PyPe, was provided by exposing a coordination metal complex of E-PyPe with Zn^2+, [Zn(E-PyPe)2Cl2]·2DCM, comprising two PyPe. X-Ray analysis confirmed that prior to irradiation both PyPe in the complex were primarily in E-configuration when coordinated to the Zn^2+ metal centre.
This experiment provided evidence that the light-induced E/Z-configurational change in PyPe reaches a photostationary equilibrium of E/Z-PyPe.
This was achieved by reacting allyl bromide at 40 °C in Acetonitril (MeCN) as described below to produce PyPeBr.

C(=C\c1ccc2ccc3cccc4ccc1c2c34)/c1ccncc1 [PyPe, (E)-4-(2-(pyren-1-yl)vinyl)pyridine, reference compound]
absolute emission intensities ([1]; in c-Hex, excitation at 370nm): up to 3.5 x 10^6 | Knr ([2]; solvent CH3CN): 0.38 10^8 s^-1 | kr ([2]; solvent CH3CN): 4.44 10^8 s^-1 | Lifetime, τavr. ([2]; solvent CH3CN): 2.07 ns | Φf ([2]; solvent CH3CN): 0.92 | λ^em max ([2]; solvent CH3CN, λex = 405 nm): 616 nm | Knr ([2]; solvent CHCl3): 0.66 10^8 s^-1 | kr ([2]; solvent CHCl3): 5.44 10^8 s^-1 | Lifetime, τavr. ([2]; solvent CHCl3): 1.65 ns | Φf ([2]; solvent CHCl3): 0.89 | λ^em max ([2]; solvent CHCl3, λex = 405 nm): 607 nm | Knr ([2]; solvent DCM): 2.38 10^8 s^-1 | kr ([2]; solvent DCM): 3.43 10^8 s^-1 | Lifetime, τavr. ([2]; solvent DCM): 1.72 ns | Φf ([2]; solvent DCM): 0.59 | λ^em max ([2]; solvent DCM, λex = 405 nm): 623 nm | Knr ([2]; solvent DMF): 0.26 10^8 s^-1 | kr ([2]; solvent DMF): 2.60 10^8 s^-1 | Lifetime, τavr. ([2]; solvent DMF): 3.5 ns | Φf ([2]; solvent DMF): 0.91 | Knr ([2]; solvent MeOH): 0.65 10^8 s^-1 | kr ([2]; solvent MeOH): 3.19 10^8 s^-1 | Lifetime, τavr. ([2]; solvent MeOH): 2.6 ns | Φf ([2]; solvent MeOH): 0.83 | λ^em max ([2]; solvent MeOH, λex = 405 nm): 611 nm | Knr ([2]; solvent THF): 2.17 10^8 s^-1 | kr ([2]; solvent THF): 2.26 10^8 s^-1 | Lifetime, τavr. ([2]; solvent THF): 2.26 ns | Φf ([2]; solvent THF): 0.51 | λ^em max ([2]; solvent THF, λex = 405 nm): 613 nm | Knr ([2]; solvent Toluene): 0.53 10^8 s^-1 | kr ([2]; solvent Toluene): 3.91 10^8 s^-1 | Lifetime, τavr. ([2]; solvent Toluene): 2.25 ns | Φf ([2]; solvent Toluene): 0.88 | λ^em max ([2]; solvent Toluene, λex = 405 nm): 603 nm | Knr ([2]; solvent c-Hex): 0.47 10^8 s^-1 | kr ([2]; solvent c-Hex): 0.84 10^8 s^-1 | Lifetime, τavr. ([2]; solvent c-Hex): 7.58 ns | Φf ([2]; solvent c-Hex): 0.64 | stability of the absorbance under irradiation ([3]; 5µM in DCM): an early bleaching effect could be detected within the first 15 minutes of irradiation | stability of the absorbance under irradiation ([3]; 5µM in MeOH): an early bleaching effect could be detected within the first 15 minutes of irradiation | morphological signs of cell toxicity (HEK/OVA-B16 cells; 10µM): No morphological signs of cell toxicity | staining pattern in cells (HEK/OVA-B16 cells): cytosolic staining and subcellular partitioning | uptake by living cells (HEK/OVA-B16 cells): readily taken up | fluorescence emission spectrum in situ, peak (HEK/OVA-B16 cells): 465 nm

C=CC[n+]1ccc(/C=C/c2ccc3ccc4cccc5ccc2c3c45)cc1.[Br-] [PyPeBr, (E)-1-allyl-4-(2-(pyren-1-yl)vinyl)pyridinium bromide]
highest emission intensity ([1]; dissolved in DMF, excitation at 440nm): over 8.5 x 10^6 | emission peaks ([1]; very broad emission range, listed as General Formula P1.1): 405 nm and 465 nm and 565 nm | Knr ([2]; solvent CH3CN): 3.15 10^8 s^-1 | kr ([2]; solvent CH3CN): 1.05 10^8 s^-1 | λ^em max ([2]; solvent CH3CN, Table 2, excitation not given): 621 nm | Lifetime, τavr. ([2]; solvent CH3CN): 2.38 ns | Φf ([2]; solvent CH3CN): 0.25 | Knr ([2]; solvent CHCl3): 0.06 10^8 s^-1 | kr ([2]; solvent CHCl3): 6.27 10^8 s^-1 | λ^em max ([2]; solvent CHCl3, Table 2, excitation not given): 609 nm | Lifetime, τavr. ([2]; solvent CHCl3): 1.58 ns | Φf ([2]; solvent CHCl3): 0.99 | Knr ([2]; solvent DCM): 1.87 10^8 s^-1 | kr ([2]; solvent DCM): 0.36 10^8 s^-1 | λ^abs max ([2]; solvent DCM): 492 nm | λ^em max ([2]; solvent DCM, Table 2, excitation not given): 622 nm | Lifetime, τavr. ([2]; solvent DCM): 4.5 ns | Φf ([2]; solvent DCM): 0.16 | Knr ([2]; solvent DMF): 1.79 10^8 s^-1 | kr ([2]; solvent DMF): 2.18 10^8 s^-1 | Lifetime, τavr. ([2]; solvent DMF): 2.52 ns | Φf ([2]; solvent DMF): 0.55 | Knr ([2]; solvent MeOH): 1.33 10^8 s^-1 | kr ([2]; solvent MeOH): 3.79 10^8 s^-1 | λ^em max ([2]; solvent MeOH, Table 2, excitation not given): 614 nm | Lifetime, τavr. ([2]; solvent MeOH): 1.95 ns | Φf ([2]; solvent MeOH): 0.74 | Knr ([2]; solvent THF): 3.08 10^8 s^-1 | kr ([2]; solvent THF): 0.06 10^8 s^-1 | λ^abs max ([2]; solvent THF): 447 nm | λ^em max ([2]; solvent THF, Table 2, excitation not given): 617 nm | Lifetime, τavr. ([2]; solvent THF): 3.18 ns | Φf ([2]; solvent THF): 0.02 | Knr ([2]; solvent Toluene): 4.21 10^8 s^-1 | kr ([2]; solvent Toluene): 0.04 10^8 s^-1 | λ^abs max ([2]; solvent Toluene): 455 nm | λ^em max ([2]; solvent Toluene, Table 2, excitation not given): 606 nm | Lifetime, τavr. ([2]; solvent Toluene): 2.35 ns | Φf ([2]; solvent Toluene): 0.01 | Knr ([2]; solvent c-Hex): 4.69 10^8 s^-1 | kr ([2]; solvent c-Hex): 0.10 10^8 s^-1 | λ^abs max ([2]; solvent c-Hex): 370 nm | Lifetime, τavr. ([2]; solvent c-Hex): 2.09 ns | Φf ([2]; solvent c-Hex): 0.02 | stability of the absorbance under irradiation ([3]; 5µM in MeOH): only a minor decrease in absorbance after 15 minutes of irradiation but no further significant increase over a 24h irradiation period | capacity to absorb light ranging from 370 nm to 500 nm under irradiation ([3]; 5µM in ultra-pure water (MilliQ purification), 24h): remained substantially unchanged over a 24h irradiation period | deterioration in cell activity ([4]; 50 µM in cell buffered water or water/buffer/DMSO mixtures): minor or non-visible signs of deterioration in cell activity | cell growth ([4]; 50 µM, after 1h and 24h of exposure): unaffected | morphological signs of cell toxicity (HEK/OVA-B16 cells; 10µM): cytosol structure changes were observed | morphological signs of cell toxicity (HEK/OVA-B16 cells; 50µM): cells became round and started to detach | staining pattern in cells (HEK/OVA-B16 cells): stained the cytoplasm | uptake by living cells (HEK/OVA-B16 cells): readily taken up | fluorescence emission spectrum in situ, peak (HEK/OVA-B16 cells): 565 nm | rate of E/Z-isomerization [5]: substantially faster than in PyPe | solubility in water (Solubility): highly soluble in water

C(=C\c1ccc2ccc3cccc4ccc1c2c34)/c1ccccc1 [PyPh, (E)-1-styrylpyrene]
highest emission intensity, factor less than optimal emission intensities of PyPeBr ([1]; excitation at 370nm): ~1000 | stability of the absorbance under irradiation ([3]; 5µM in DCM): Comparable results | stability of the absorbance under irradiation ([3]; 5µM in MeCN): gradually decreases over a 24h irradiation period, with a significant drop detected as early as after 15 mins of irradiation | stability of the absorbance under irradiation ([3]; 5µM in MeOH): gradually decreases over a 24h irradiation period, with a significant drop detected as early as after 15 mins of irradiation | morphological signs of cell toxicity (HEK/OVA-B16 cells; 10µM): No morphological signs of cell toxicity | uptake by living cells (HEK/OVA-B16 cells): readily taken up | fluorescence emission spectrum in situ, peak (HEK/OVA-B16 cells): 450 nm

Cascade Blue
irradiation time to complete photobleaching ([3]; 5µM in ultra-pure water (Milli Q purification)): ≤ 8 h
